Assay results taken from US10501493B2, “Broad spectrum antibiotics” (priority 2011, dated 2019).
Values after ≈ are worked out from the molar mass of the structure shown.

Columns and labels:
[1] = test system: E. coli MIG1655 LepB(P84L); assay: In vitro antimicrobial activity, MIC by broth micro-dilution; format: cell-based; details: Escherichia coli
Method in brief: (§1)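 CLSI broth micro-dilution MIC against two-fold serial compound dilutions. Inoculum came from colonies grown 24 h at 35° C. or 28° C., suspended in cation-adjusted Mueller Hinton broth at 1*10^7 CFU/ml, of which 5 μl was added per 100 μl well. LepB(P84L) is a proline-mutant SPase strain with heightened arylomycin susceptibility.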

[2] = test system: S. aureus NCTC-8325 SpsB(P295); assay: as above; format: cell-based; details: Staphylococcus aureus, NCTC8325
S. epidermidis RP62A = assay: as above; format: cell-based; details: Staphylococcus epidermidis; S. epidermidis RP62A; read-out: MIC
S. pneumoniae D39 = assay: as above; format: cell-based; details: Streptococcus pneumoniae; S. pneumoniae D39; read-out: MIC
[3] = test system: P. aeruginosa PA01 LepB(P84L); assay: as above; format: cell-based; details: Pseudomonas aeruginosa
Method in brief: as §1

[4] = test system: S. epidermidis RP62A SpsIB(S29P); assay: as above; format: cell-based; details: Staphylococcus epidermidis
[5] = test system: S. epidermidis RP62A SpsIB(S31P); assay: as above; format: cell-based; details: Staphylococcus epidermidis
S. aureus SPase = target: T1, S. aureus SPase (Staphylococcus aureus, UniProt P0A070); assay: Steady state binding constant (Kd) determination by fluorescence increase
T1 construct: Full length His-tagged S. aureus SPase protein was expressed similarly; His-tag; made in house; host or cells: E. coli BL21(DE3)
Experimental: (§2) Full length His-tagged E. coli SPase proteins were expressed in E. coli BL21(DE3) containing the plasmid pET23-lepB, P. A. Smith et al. Chem Biol 2010, 1223-1231. Briefly, saturated overnight cultures grown in 20 ml of Luria-Bertani medium supplemented with ampicillin were subcultures into 1.5 L of Luria-Bertani, and shaken at 37° C. until an optical density at 600 nm of 0.4-0.5 was achieved. Protein expression was induced with Isopropyl β-D-1-thiogalactopyranoside (ITPG) at a final concentration of […], and purified using nickel affinity chromatography. Full length His-tagged S. aureus SPase protein was expressed similarly from E. coli BL21(DE3) containing the plasmid pCDF1-SaSpsB or pCDF1-SaSpsB(P29S) and purified similarly to the E. coli protein with the following exceptions. SPase protein was solubilized using 300 mM NaCl, 20 mM Tris pH 8.06, 5 mM Imidazole, 10% glycerol, 1% Triton X-100, prior to purification in Ni-NTA Superflow resin and resin bound protein was washed in a similar buffer containing 1% Elugent in place of Triton X-100 prior to protein eluted in wash buffer supplemented with 300 mM imidazole. Protein purify was judged to exceed 95% by visual inspection of SDS-PAGE followed by Comassie staining. All protein concentrations were determined by BCA assay.
(§3) Steady state binding constants (Kds) of compounds were determined by measuring an increase in fluorescence (λex=280 nm, λem=405 nm) that occurs upon binding to E. coli or S. aureus SPase protein. Two-fold serial dilutions of compounds were prepared in 100% DMSO, and compounds were diluted into binding buffer consisting of 100 mM NaCl, 20 mM Tris-HCl pH 7.4, 1 mM EDTA, 1% n-octyl-3-glucopyranoside (Anatrace), and 10% glycerol, with the final DMSO concentration equal to 1%. 70 μl of the resulting solutions containing various concentrations of compound in binding buffer were aliquoted into triplicate wells of a black polystyrene 384-well plate. 5 μl of blank solution or E. coli or S. aureus protein at concentrations of 750 or 3750 nM respectively, were added to each set of wells for a given inhibitor concentration. Plates were incubated for 14 hours and fluorescence read on an EnVision Multilable plate reader (Perkin Elmer™). Differences in fluorescence values between wells with and without protein were determined and background corrected for protein auto fluorescence. The corrected fluorescence difference data was fit to the quadratic equilibrium binding curve using the non-linear regression analysis software Solver (Frontline Systems®) run in Excel 2010, (Microsoft®), using experimentally determined quantum efficiency constants to convert fluorescence into nanomoles of protein/compound complex.

E. coli SPase = target: T2, E. coli SPase (Escherichia coli, UniProt P00803); assay: as above
T2 construct: Full length His-tagged E. coli SPase proteins were expressed in E. coli BL21(DE3); His-tag; made in house; host or cells: E. coli BL21(DE3)
Experimental: as §2, §3

[6] = test system: S. epidermidis ATCC 12228; assay: In vitro antimicrobial activity, MIC by broth micro-dilution; format: cell-based; details: Staphylococcus epidermidis, ATCC12228, read-out: MIC
C. glutamicum DSM 44475 = assay: as above; format: cell-based; details: Corynebacterium glutamicum, DSM44475, read-out: MIC
S. pneumoniae R800 = assay: as above; format: cell-based; details: Streptococcus pneumoniae, read-out: MIC
Method in brief: as §1

S. pyogenes M15448 = assay: as above; format: cell-based; details: Streptococcus pyogenes; S. pyogenes M15448; read-out: MIC
Method in brief: as §1

S. aureus ATCC 29213 = assay: as above; format: cell-based; details: Staphylococcus aureus, ATCC29213, read-out: MIC
S. agalactiae ATCC 13813 = assay: as above; format: cell-based; details: Streptococcus agalactiae, ATCC13813, read-out: MIC
S. agalactiae COH-1 = assay: as above; format: cell-based; details: Streptococcus agalactiae, COH1; S. agalactiae COH-1; read-out: MIC
S. pyogenes ATCC 19615 = assay: as above; format: cell-based; details: Streptococcus pyogenes, ATCC19615, read-out: MIC
R. equi DSM 6939 = assay: as above; format: cell-based; details: Rhodococcus (subgen. Prescottella) equi, DSM6939, read-out: MIC
Method in brief: as §1

Compound	MIC [1] [µg/mL]	MIC [2] [µg/mL]	MIC (S. epidermidis RP62A) [µg/mL]	MIC (S. pneumoniae D39) [µg/mL]	MIC [3] [µg/mL]	MIC [4] [µg/mL]	MIC [5] [µg/mL]	Kd (S. aureus SPase) [nM]	Kd (E. coli SPase) [nM]	MIC [6] [µg/mL]	MIC (C. glutamicum DSM 44475) [µg/mL]	MIC (S. pneumoniae R800) [µg/mL]	MIC (S. pyogenes M15448) [µg/mL]	MIC (S. aureus ATCC 29213) [µg/mL]	MIC (S. agalactiae ATCC 13813) [µg/mL]	MIC (S. agalactiae COH-1) [µg/mL]	MIC (S. pyogenes ATCC 19615) [µg/mL]	MIC (R. equi DSM 6939) [µg/mL]
CCCCCCCCCCCCCCCC(=O)N(C)[C@H](CO)C(=O)N[C@H](C)C(=O)NCC(=O)N(C)[C@@H]1C(=O)N[C@@H](C)C(=O)N[C@H](C(N)=O)Cc2ccc(O)c(c2)-c2cc1ccc2O [Compound 11]	4 (≈ 4.54 µM)	32 (≈ 36.4 µM)	2 (≈ 2.27 µM)	64 (≈ 72.7 µM)	> 64	> 64	> 64	2100	100	–	–	–	–	–	–	–	–	–
CCCCCCCCCCCCCCCC(=O)N(C)[C@H](CO)C(=O)N[C@H](C)C(=O)NCC(=O)N(C)[C@@H]1C(=O)N[C@@H](C)C(=O)N[C@H](C(=O)NC)Cc2ccc(O)c(c2)-c2cc1ccc2O [Compound 12]	8 (≈ 8.95 µM)	–	2 (≈ 2.24 µM)	> 64	> 64	64 (≈ 71.6 µM)	> 64	600	240	–	–	–	–	–	–	–	–	–
CCCCCCCCCCCCCCCC(=O)N(C)[C@H](CO)C(=O)N[C@H](C)C(=O)NCC(=O)N(C)[C@@H]1C(=O)N[C@@H](C)C(=O)N[C@H](C(=O)N(C)C)Cc2ccc(O)c(c2)-c2cc1ccc2O [Compound 13]	16 (≈ 17.6 µM)	–	64 (≈ 70.5 µM)	> 64	> 64	> 64	> 64	> 100000	2000	–	–	–	–	–	–	–	–	–
CCCCCCCCCCCCCCCC(=O)N(C)[C@H](CO)C(=O)N[C@H](C)C(=O)NCC(=O)N(C)[C@@H]1C(=O)N[C@@H](C)C(=O)N[C@H](C(=O)N[C@@H](C)C(=O)N2CCCC2C(N)=O)Cc2ccc(O)c(c2)-c2cc1ccc2O (stereo partly drawn) [Compound 14]	16 (≈ 15.3 µM)	8 (≈ 7.63 µM)	2 (≈ 1.91 µM)	8 (≈ 7.63 µM)	> 64	> 64	> 64	600	2800	–	–	–	–	–	–	–	–	–
CCCCCCCCCCCCCCCC(=O)N(C)[C@H](CO)C(=O)N[C@H](C)C(=O)NCC(=O)N(C)[C@@H]1C(=O)N[C@@H](C)C(=O)N[C@H](C(=O)N[C@@H](C)C(N)=O)Cc2ccc(O)c(c2)-c2cc1ccc2O [Compound 15]	8 (≈ 8.41 µM)	8 (≈ 8.41 µM)	2 (≈ 2.1 µM)	8 (≈ 8.41 µM)	> 64	> 64	> 64	2000	5800	> 64	> 64	16 (≈ 16.8 µM)	16 (≈ 16.8 µM)	> 64	> 64	> 64	16 (≈ 16.8 µM)	–
CCCCCCCCCCCCCCCC(=O)N(C)[C@H](CO)C(=O)N[C@H](C)C(=O)NCC(=O)N(C)[C@@H]1C(=O)N[C@@H](C)C(=O)N[C@H](C(=O)N[C@@H](C)C(=O)N2CCC[C@H]2C(=O)O)Cc2ccc(O)c(c2)-c2cc1ccc2O [Compound 25]	8 (≈ 7.62 µM)	> 64	4 (≈ 3.81 µM)	8 (≈ 7.62 µM)	> 64	64 (≈ 61 µM)	> 64	–	–	16 (≈ 15.2 µM)	64 (≈ 61 µM)	8 (≈ 7.62 µM)	16 (≈ 15.2 µM)	64 (≈ 61 µM)	8 (≈ 7.62 µM)	> 64	16 (≈ 15.2 µM)	> 64
CCCCCCCCCCCCCCCC(=O)N(C)[C@H](CO)C(=O)N[C@H](C)C(=O)NCC(=O)N(C)[C@@H]1C(=O)N[C@@H](C)C(=O)N[C@H](C(=O)NCC(N)=O)Cc2ccc(O)c(c2)-c2cc1ccc2O [Compound 26]	8 (≈ 8.54 µM)	> 64	4 (≈ 4.27 µM)	8 (≈ 8.54 µM)	> 64	> 64	> 64	–	–	32 (≈ 34.1 µM)	32 (≈ 34.1 µM)	16 (≈ 17.1 µM)	> 64	> 64	16 (≈ 17.1 µM)	> 64	8 (≈ 8.54 µM)	64 (≈ 68.3 µM)
CCCCCCCCCCCCCCCC(=O)N(C)[C@H](CO)C(=O)N[C@H](C)C(=O)NCC(=O)N(C)[C@@H]1C(=O)N[C@@H](C)C(=O)N[C@H](C(=O)NCC(=O)N2CCCC2C(N)=O)Cc2ccc(O)c(c2)-c2cc1ccc2O (stereo partly drawn) [Compound 27]	8 (≈ 7.73 µM)	> 64	8 (≈ 7.73 µM)	16 (≈ 15.5 µM)	> 64	> 64	> 64	–	–	32 (≈ 30.9 µM)	32 (≈ 30.9 µM)	32 (≈ 30.9 µM)	32 (≈ 30.9 µM)	> 64	32 (≈ 30.9 µM)	32 (≈ 30.9 µM)	32 (≈ 30.9 µM)	> 64
CCCCCCCCCCCCCCCC(=O)N(C)[C@H](CO)C(=O)N[C@H](C)C(=O)NCC(=O)N(C)[C@@H]1C(=O)N[C@@H](C)C(=O)N[C@H](C(=O)N[C@@H](C)C(=O)C(=O)N(C)C)Cc2ccc(O)c(c2)-c2cc1ccc2O [Compound 28]	8 (≈ 7.94 µM)	32 (≈ 31.8 µM)	4 (≈ 3.97 µM)	8 (≈ 7.94 µM)	> 64	> 64	> 64	–	–	16 (≈ 15.9 µM)	32 (≈ 31.8 µM)	16 (≈ 15.9 µM)	32 (≈ 31.8 µM)	> 64	16 (≈ 15.9 µM)	32 (≈ 31.8 µM)	16 (≈ 15.9 µM)	> 64
CCCCCCCCCCCCCCCC(=O)N(C)[C@H](CO)C(=O)N[C@H](C)C(=O)NCC(=O)N(C)[C@@H]1C(=O)N[C@@H](C)C(=O)N[C@H](C(=O)N[C@H](C)C(=O)C(=O)N(C)C)Cc2ccc(O)c(c2)-c2cc1ccc2O [Compound 29]	16 (≈ 15.9 µM)	> 64	8 (≈ 7.94 µM)	16 (≈ 15.9 µM)	> 64	> 64	> 64	–	–	32 (≈ 31.8 µM)	32 (≈ 31.8 µM)	32 (≈ 31.8 µM)	64 (≈ 63.5 µM)	> 64	32 (≈ 31.8 µM)	64 (≈ 63.5 µM)	16 (≈ 15.9 µM)	> 64
CCCCCCCCCCCCCCCC(=O)N(C)[C@H](CO)C(=O)N[C@H](C)C(=O)NCC(=O)N(C)[C@@H]1C(=O)N[C@@H](C)C(=O)N[C@H](C(=O)NCC(=O)N2CCC[C@H]2C(=O)O)Cc2ccc(O)c(c2)-c2cc1ccc2O [Compound 31]	16 (≈ 15.5 µM)	> 64	8 (≈ 7.73 µM)	4 (≈ 3.86 µM)	> 64	> 64	> 64	–	–	32 (≈ 30.9 µM)	> 64	8 (≈ 7.73 µM)	16 (≈ 15.5 µM)	> 64	8 (≈ 7.73 µM)	> 64	8 (≈ 7.73 µM)	> 64
